Patent publication US4452812A, “Organic complex of platinum, its preparation and its use for treating malignant tumors” (Sanofi, priority 1980, dated 1984)

System: baboon (ear, Corti organ)
Test: Ototoxicity test in the baboon (auditory potentials, echocochleography)
Assay type: in vivo
Conditions: baboon No 3, 200 mg/kg, D31
Protocol: An ototoxicity test was carried out on baboon No. 3 (200 mg/kg) on D31. This test comprised the following: (a) Registering the auditory potentials when the ear was submitted to 1500 stimuli at 90, 80, 70, 60, 50, 40, 30, 20 and 10 decibels. The results gave the latency times for conduction from the ear to the brain. (b) Performing the same kind of test by echocochleography. This analysis was much more accurate than the previous one because it was only carried out in the Corti organ (cochlea). Frequencies of 8000, 4000, 2000 and 1000 Hertz at 90, 70, 50, 30, 20 and 10 decibels were used. Measurements were made using a Racia Medelec Empled MK4 1026. […] The properties of PHIC compared to those of PDD can be summarized as follows: […]

Question: With `NC1CCCCC1N.O=C([O-])CC(C(=O)[O-])C([O-])C(=O)[O-].[H+].[H+].[Pt+2]` (stereo not drawn) [PHIC, cis-isocitrato (1,2-diaminocyclohexane) platinum (II)] as the compound, how does the ototoxic effect read?
Answer: Its ototoxic effect is “No ototoxic effect was detected”.
